Reference: US9686986B2, “Herbicidal compounds” (SYNGENTA LIMITED, priority 2011, dated 2017)

What was measured:
Assay in all cases: Glasshouse herbicide test, pre- and post-emergence, percentage damage
Format in all cases: in vivo
[1] = test system: Amaranthus retoflexus (AMARE); conditions: 1000 g/h, evaluated after 13 days, five point scale (Table B2); for percentage damage caused to the plant, AMARE, POST Application: post-emergence; for percentage damage caused to the plant, AMARE, PRE Application: pre-emergence
Experimental: (§1) Seeds of a variety of test species are sown in standard soil in pots (Alopecurus myosuroides (ALOMY), Setaria faberi (SETFA), Stellaria media (STEME), Echinochloa crus-galli (ECHCG), Solanum nigrum (SOLNI), Amaranthus retoflexus (AMARE), Ipomoea hederacea (IPOHE), Lolium perenne (LOLPE). After cultivation for one day (pre-emergence) or after 8 days cultivation (post-emergence) under controlled conditions in a glasshouse (at 24/16° C., day/night; 14 hours light; 65% humidity), the plants are sprayed with an aqueous spray solution derived from the formulation of the technical active ingredient in acetone/water (50:50) solution containing 0.5% Tween 20 (polyoxyethelyene sorbitan monolaurate, CAS RN 9005-64-5). Compounds ae applied at 1000 g/h. The test plants are then grown in a glasshouse under controlled conditions in a glasshouse (at 24/16° C., day/night; 14 hours light; 65% humidity) and watered twice daily. After 13 days for pre and post-emergence, the test is evaluated for the percentage damage caused to the plant. The biological activities are shown in the following table on a five point scale (5=80-100%; 4=60-79%; 3=40-59%; 2=20-39%; 1=0-19%).

[2] = test system: DIGSA; conditions: 1000 g/h, evaluated after 13 days, five point scale; for percentage damage caused to the plant, DIGSA, POST Application: post-emergence; for percentage damage caused to the plant, DIGSA, PRE Application: pre-emergence
Experimental: [The source words this procedure for another organism and reports this organism under the same test.] as §1

[3] = test system: Lolium perenne (LOLPE); conditions: 1000 g/h, evaluated after 13 days, five point scale; for percentage damage caused to the plant, LOLPE, POST Application: post-emergence; for percentage damage caused to the plant, LOLPE, PRE Application: pre-emergence
Experimental: as §1

[4] = test system: Stellaria media (STEME); conditions: 1000 g/h, evaluated after 13 days, five point scale; for percentage damage caused to the plant, STEME, POST Application: post-emergence; for percentage damage caused to the plant, STEME, PRE Application: pre-emergence
Experimental: as §1

Compound	percentage damage caused to the plant, AMARE, POST Application [1]	percentage damage caused to the plant, AMARE, PRE Application [1]	percentage damage caused to the plant, DIGSA, POST Application [2]	percentage damage caused to the plant, DIGSA, PRE Application [2]	percentage damage caused to the plant, LOLPE, POST Application [3]	percentage damage caused to the plant, LOLPE, PRE Application [3]	percentage damage caused to the plant, STEME, POST Application [4]	percentage damage caused to the plant, STEME, PRE Application [4]
CS(=O)(=O)c1ccc(C(=O)Nc2nnn[nH]2)c(Cl)c1COCC(F)(F)F [Compound 1.002]	5 (5=80-100%)	5 (5=80-100%)	1 (1=0-19%)	1 (1=0-19%)	1 (1=0-19%)	1 (1=0-19%)	2 (2=20-39%)	1 (1=0-19%)
Cc1nc(C(C)F)ccc1C(=O)Nc1nnnn1C (stereo not shown) [Compound 1.006]	5 (5=80-100%)	5 (5=80-100%)	5 (5=80-100%)	4 (4=60-79%)	5 (5=80-100%)	4 (4=60-79%)	5 (5=80-100%)	4 (4=60-79%)
COCc1nc(C(C)F)ccc1C(=O)Nc1nnnn1C (stereo not shown) [Compound 1.007]	5 (5=80-100%)	5 (5=80-100%)	5 (5=80-100%)	3 (3=40-59%)	2 (2=20-39%)	1 (1=0-19%)	5 (5=80-100%)	4 (4=60-79%)
Cn1nnnc1NC(=O)c1ccccc1Cl [Compound 1.015]	4 (4=60-79%)	5 (5=80-100%)	1 (1=0-19%)	1 (1=0-19%)	4 (4=60-79%)	3 (3=40-59%)	4 (4=60-79%)	3 (3=40-59%)
CCCn1nnnc1NC(=O)c1cccc(Cl)c1Cl [Compound 1.016]	3 (3=40-59%)	4 (4=60-79%)	1 (1=0-19%)	1 (1=0-19%)	1 (1=0-19%)	1 (1=0-19%)	1 (1=0-19%)	2 (2=20-39%)
COc1ccc2cc(C(=O)Nc3nnn[nH]3)c(C(F)(F)F)nc2n1 [Compound 2.001]	3 (3=40-59%)	1 (1=0-19%)	1 (1=0-19%)	1 (1=0-19%)	1 (1=0-19%)	1 (1=0-19%)	3 (3=40-59%)	1 (1=0-19%)
Cc1nc2nc(C(F)(F)F)c(C(=O)Nc3nnnn3C)cc2cc1F [Compound 2.002]	5 (5=80-100%)	5 (5=80-100%)	4 (4=60-79%)	3 (3=40-59%)	2 (2=20-39%)	2 (2=20-39%)	5 (5=80-100%)	3 (3=40-59%)
COc1cc2cc(C(=O)Nc3nnnn3C)c(C(F)(F)F)nc2nc1C [Compound 2.003]	5 (5=80-100%)	5 (5=80-100%)	4 (4=60-79%)	1 (1=0-19%)	2 (2=20-39%)	1 (1=0-19%)	5 (5=80-100%)	1 (1=0-19%)
